Measurements as given in a melting point compilation (Tetko et al.).

melting point [°C]	Compound
37	CCC(=O)c1ccc(C(F)(F)F)c(F)c1
154	Cn1ccc(C(=O)O)n1
69.5	COc1c(OC)c(OC(C)=O)c2c(OC)cccc2c1OC(C)=O
168	O=C(O)c1ccc(C(F)(F)F)cc1F
59 to 60	CCOC(=O)c1cc2cccnc2s1
170	C=CC1(C)CC(OC(=O)CO)C2(C)C(C)CCC3(CCC(=O)C32)C(C)C1O (centres undefined)
234 to 235	Cc1ccc(C2NC(=O)NC(c3ccc(C)cc3)C2(C#N)C(=O)c2ccccc2)cc1 (centres undefined)
144 to 146	COc1ccc2cc(Br)ccc2c1CCl
216	Cn1c(=O)cc(NN)c2ccccc21
209 to 210	Oc1ccccc1/C=N/n1c(-c2ccccc2)n[nH]c1=S
139	O=C(COc1ccc(Cl)cc1)Nc1nc2ccccc2s1
163	O=C(O)CCC(=O)c1ccc(C2CCCCC2)c(Cl)c1
207	CNC(C)C1C(O)CC2(C)C3CCC4C(C)(C)C(NC)CCC45CC35CCC12C (centres undefined)
310 to 312	CC(=O)c1nn(-c2ccccc2)c2cc3c(cc12)c(C(C)=O)nn3-c1ccccc1
223 to 225	NC(CCCCCC(=O)O)C(=O)O (racemic)
208 to 212	Brc1nc(Br)c(Br)[nH]1
212	CC(=O)CC(=O)Nc1ccc(-c2ccc(NC(=O)CC(C)=O)c(C)c2)cc1C
221	CC(=CC=C(C)C(=O)O)C(=O)O
107 to 112	O=C(CC(=O)c1cc(Cl)ccc1O)c1ccccc1
82 to 86	Cn1c(=O)oc2ccccc21
213	Nc1ncnc2c1ncn2C1OC(COP(=O)(O)O)C(O)C1O (centres undefined)
28	Nc1cc(F)c(F)c(F)c1F
90 to 94	CC(C)(C)OC(=O)N[C@H]1CCC[C@H]1C(=O)O (relative stereo)

melting point [°C]	Compound
58	O=Cc1ccccc1-n1cccn1
124 to 125	O=C(O)/C=C/c1c(F)cccc1F
278	COc1ccc(/N=N/c2c(N)nn3c(-c4ccccc4)cc(=O)[nH]c23)cc1
48	O=S(=O)(Cl)c1c(Cl)cc(C(F)(F)F)cc1Cl
293	O=c1c(O)c(O)c1=O
225	Cc1c(Cl)c(Cl)c(Cl)c(Cl)c1Cl
210	CCNc1nc2c(cc1C(=O)OC)c(=O)oc1ccccc12
150 to 151	CC(=O)c1ccc(NC(=O)CCl)cc1
45.5	CCCCCCCC(=O)Oc1c(Br)cc(C#N)cc1Br
282	O=C(O)c1cc(O)c2ccccc2n1
95 to 96	FC(F)(F)c1cccc(-c2noc(-c3cc(-c4ccccc4)c(C(F)(F)F)s3)n2)c1
135 to 137	CCOC(=O)C(C#N)=C1Oc2ccccc2N1C
193	O=[N+]([O-])c1ccc(/C=C\c2ccccc2C=NNc2ccccc2)c([N+](=O)[O-])c1
62 to 65	CC(C)NC(=O)CC#N
102 to 104	Cc1cccc(Cn2nc(C(C)(C)C)cc2C(=O)NN)c1
155	CC1(C)c2cccc(P(C(C)(C)C)C(C)(C)C)c2Oc2c(P(C(C)(C)C)C(C)(C)C)cccc21
101 to 106	CCOC(=O)CC(=O)C=P(c1ccccc1)(c1ccccc1)c1ccccc1
99 to 100	COC(=O)c1ccc2nccnc2c1
216	Cc1cc(C(=O)O)ccc1Br
92 to 96	N#Cc1c(F)cccc1Oc1ccccc1
97	CC12CCC(C(=Cc3ccccc3)C1=O)C2(C)C (centres undefined)
168 to 170	Cc1cc(Cl)cc(Cl)c1S(N)(=O)=O
-43.1	CCC=Cc1ccccc1

melting point [°C]	Compound
-36	Cc1cccc(C)c1N(C)C
179 to 181	CC(=O)c1sc(-c2ccc(C(C)(C)C)cc2)cc1N
78 to 79	O=Cc1cn2ccccc2n1
148 to 150	O=C(Nc1cccnc1Cl)c1ccc(Cl)cc1Cl
110	O=Cc1cccc([N+](=O)[O-])c1O
144 to 146	COCC(CCC(=O)OC)N1CC=CC1 (centres undefined)
90	CC(C)CC(N)C(=O)Nc1ccc([N+](=O)[O-])cc1 (centres undefined)
106 to 107	O=Cc1csc2ccc(Br)cc12
112	CNC(=O)COC(=O)c1ccccc1
74	O=C(/C=C/c1ccc(OCCCCl)cc1)c1ccccc1
92 to 97	CCCCC(O)C(O)CO (centres undefined)
284 to 287	COc1cccc2c(O)c3ccccc3nc12
106	Cc1[nH]c2ccccc2c1C
64	Cc1ccc(C(c2ccc(Br)cc2)c2ccc(C)o2)o1
-78	C[Si](C)(C)O[Si](C)(C)O[Si](C)(C)O[Si](C)(C)O[Si](C)(C)O[Si](C)(C)O[Si](C)(C)C
178	O=Cc1ccccc1OC1OC(CO)C(O)C(O)C1O (centres undefined)
160	COc1ccc(C2Nn3c(nnc3-c3ccccc3)S2)cc1 (centres undefined)
67 to 70	CCOc1nc2ccccc2c(=O)n1Cc1cccnc1
125	Clc1ccc(C=NCCN=Cc2ccc(Cl)cc2)cc1
118	C(=N\c1cc2c(cc1CCc1ccccc1)CC(c1ccccc1)N2)/c1ccccc1 (centres undefined)
160	O=C1CCc2cc(OCCCCc3nnnn3C3CCCCC3)ccc2N1
105 to 106	CC(=O)c1ccc(C=O)s1
187	Nc1ccc(S(=O)(=O)Nc2ccc(Cl)nn2)cc1

melting point [°C]	Compound
224 to 227	O=C1[C@H]2Cc3ccccc3C[C@H]2C(=O)[C@@H]2Cc3ccccc3C[C@H]12
127 to 128	O=Cc1c(-c2ccccc2)nc2n1CCS2
-18.5	CCCCCCCCCCCCCCCCOC(C)=O
177 to 179	CSc1nc2nc(SC)n(C)c2c(=O)n1-c1ccc(F)cc1
-32	CCCCCCCCC=CCCCCCCCC(=O)OCC(COC(=O)CCCCCCCC=CCCCCCCCC)OC(=O)CCCCCCCC=CCCCCCCCC (centres undefined)
198 to 200	O=C(O)c1cccc2nsnc12
205 to 206	CC12CCC(C(=C/O)/C1=N\NC(N)=O)C2(C)C (centres undefined)
188 to 189	Cc1cc(C)c(CC(=O)c2oc3ccccc3c2N)c(C)c1
130	O=C(O)C(F)(F)C(F)(F)C(F)(F)C(F)(F)C(F)(F)C(F)(F)C(F)(F)C(F)(F)C(F)(F)C(F)(F)C(F)(F)C(F)(F)C(F)(F)F
126	Cc1cc(C)c(O)cc1O
207 to 211	O=c1[nH]c2ccc(S(=O)(=O)CCO)cc2o1
118 to 119	CN(C)c1nc(-c2cccs2)cc(C(F)(F)F)c1C#N
104 to 108	COC(=O)c1ccc(N)c(Br)c1
111 to 113	CCOC(=O)C12CCC(C(=O)OCC)(CC1=O)C(=O)C2
158	O=C(/C=C/c1ccccc1)Oc1ccc(/C=C/C(=O)c2ccccc2)cc1
83 to 87	CCc1ncc[nH]1
257	Cc1cc(O)c2c(c1)C(=O)c1cc(O)cc(O)c1C2=O
264	Cc1cccc(NC=C2C(=O)NN=C2c2c(O)c3ccccc3n(C)c2=O)c1
147	O=C(N[C@H](Cc1ccc(Cl)cc1)C(=O)O)OCC1c2ccccc2-c2ccccc21
188 to 192	O=C(O)c1ccc(-c2ccccc2)s1
44	CCN(CC)CC(=O)Nc1c(C)cc(C)cc1C
211 to 214	c1ccc(-c2cc3ccccn3c2)cc1
254	O=C1NN=C(C(F)(F)F)C1=NNc1cccc([N+](=O)[O-])c1

melting point [°C]	Compound
212 to 213	O=C(O)c1ccc(C#Cc2ccccc2)o1
153	COc1ccc(NC(=O)c2ccccc2)cc1
85.3	Cc1cc(O)c(C)c(C)c1C
62 to 64	CC(=O)c1ccc2c(c1)CCO2
109	COc1ccc(C(=O)c2ccc(C)cc2)cc1OC
108	CCCCCCCC(N)=O
58	COc1c(Cl)cccc1[N+](=O)[O-]
129 to 131	COC(=O)c1sc(Br)c(Br)c1O
174 to 175	CSc1nc2cc(N=Cc3ccc(F)cc3)ccc2[nH]1
87	O=C(O)CCc1ccccc1O
34 to 36	c1ccc(-c2cccs2)cc1
162 to 164	CC(=O)ON(/C=C1\C(=O)C2(C)CCC1C2(C)C)c1ccccc1 (centres undefined)
158	COC(=O)C(c1ccccc1Cl)N1CCc2sccc2C1 (centres undefined)
82.5	CCCc1ccc(O)cc1O
-75.5	C=Cc1ccccc1CC
70	COc1ccc(C2(C)C=C(C)N=N2)cc1 (centres undefined)
121 to 123	OC1C2CCC1C1C=CC2O1 (centres undefined)
150	O=C(O)c1sc(Br)c2c1OCCO2
-81	CCCC(O)CC(C)C (centres undefined)

Compound	melting point [°C]
CCN(CC)c1nc(C)cc(OP(=S)(OC)OC)n1	21
CC(=O)C=Cc1ccc(Cl)cc1	55
O=[N+]([O-])C=Cc1cccc([N+](=O)[O-])c1	126
CN1CC2CC(C1)c1cccc(=O)n1C2 (centres undefined)	137
N#CC(=Cc1ccc(O)cc1)C(=O)O	250 to 253
CN1CCc2cc(O)c(O)cc2C1	255
O=C(CCl)Nc1ccc(Cl)cc1C(=O)c1ccccc1Cl	161 to 163
CC12CCC(O)CC1CCC1C2C(O)CC2(C)C(c3ccc(=O)oc3)CCC12O (centres undefined)	254
Nc1ccc(Cl)c(C(F)(F)F)c1	37
C[Si](Cn1cncn1)(c1ccc(F)cc1)c1ccc(F)cc1	54
COc1ccc(CC2NCC(O)C2OC(C)=O)cc1 (centres undefined)	141
Cc1ccc(N2CCNCC2)cc1	29 to 34
c1ccc(C2CCNCC2)cc1	60.5
